Consider seven molecules from patent US20220362311A1, “OPTIMIZED BACTERIA ENGINEERED TO TREAT DISORDERS INVOLVING THE CATABOLISM OF LEUCINE, ISOLEUCINE, AND/OR VALINE” (Synlogic Operating Company, Inc., priority 2019, published 2022).

In series [1] the test system is rat. Conditions: cited from earlier work.
Series [2] in a line: High-throughput Adh activity assay in E. coli cell lysates. The class given is biochemical. Conditions: reduction of isovaleraldehyde to isopentanol; secondary screen. On the procedure: Cell growth and enzyme preparation. Strains harboring library plasmids were transformed into an E. coli T7 expression host. 5 μL/well of thawed glycerol stocks were stamped into 500 μL/well of LB+100 ug/mL Carbenicillin (LB-Carb100) in half-height deepwell plates, which were sealed with AeraSeals. Samples were incubated at 37° C. and shaken at 1000 RPM in 80% humidity overnight. 50 μL/well of the resulting precultures were stamped into 450 μL/well of LB-Carb100+1 mM IPTG in half-height deepwell plates, which were sealed with AeraSeals. Samples were incubated at 30° C. and shaken at 1000 RPM in 80% humidity overnight. […]
10 uL of lysate was transferred to a half-area flat-bottom plate containing 90 uL/well assay buffer (50 mM MOPS buffer, 0.4 mM NADH, and 30 mM isovaleraldehyde, pH 7.0). Optical absorbance measurements were taken on a plate reader at 340 nm for 10 minutes. […]
To screen the 3×˜1300-member enzyme libraries, high-throughput methods were developed to screen for LeuDH, KivD, and Adh enzyme activities in E. coli cell lysates. […] Cells were lysed, and enzyme activity was measured in cell lysates using enzyme-specific spectrophotometric assays described above in the method section. […]
For each enzyme family, the full library (˜1300 members each) was measured in biological duplicate, and hits were selected based on the highest activity in a single replicate for each enzyme. […]

Like-named read-outs stand apart in the source and are kept apart here.

Regarding `CCC(C)CO` (stereo not drawn) [2-methylbutanol], the “Oral LD50 (rat)” value in series [1] (oral) was 4170 mg/kg. As to `CCC(C)C=O` (stereo not drawn) [2-methylbutyraldehyde], the “Oral LD50 (rat)” value in series [1] (oral) was 6884 mg/kg. With `CC(C)CO` [Isobutanol], in series [1] (oral), the “Oral LD50 (rat)” value is 3350 mg/kg and the “Oral NOAEL* (rat) (No-Observed-Adverse-Effect)” value is greater than 1450 mg/kg/day. Turning to `CC(C)C(=O)O` [Isobutyric acid], the “Oral LD50 (rat)” value in series [1] (oral) is reported as 2230 mg/kg. Take `CC(C)CCO` [Isopentanol]: the “Oral NOAEL* (rat) (No-Observed-Adverse-Effect)” value in series [1] (in vivo, po) is 1250 mg/kg/day. Besides, the “Oral LD50 (rat)” value in series [1] (oral) was greater than 5000 mg/kg. With `CC(C)CC=O` [Isovaleraldehyde], in series [1] (oral), the “Oral LD50 (rat)” value is 5740 mg/kg.

B1: ADH2 enzyme from S. cerevisiae: parent alcohol dehydrogenase ADH2 from S. cerevisiae (protein, UniProt P00331 2-348, looked up)
Alcohol dehydrogenase 2: SIPETQKAIIFYESNGKLEHKDIPVPKPKPNELLINVKYSGVCHTDLHAWHGDWPLPTKLPLVGGHEGAGVVVGMGENVKGWKIGDYAGIKWLNGSCMACEYCELGNESNCPHADLSGYTHDGSFQEYATADAVQAAHIPQGTDLAEVAPILCAGITVYKALKSANLRAGHWAAISGAAGGLGSLAVQYAKAMGYRVLGIDGGPGKEELFTSLGGEVFIDFTKEKDIVSAVVKATNGGAHGIINVSVSEAAIEASTRYCRANGTVVLVGLPAGAKCSSDVFNHVVKSISIVGSYVGNRADTREALDFFARGLVKSPIKVVGLSSLPEIYEKMEKGQIAGRYVVDTSK
On to B1, for which the “increase in Adh activity relative to the background lysate activity” value in series [2] is on record as “did not exhibit activity greater than the background lysate alcohol dehydrogenase activity”.
